Measured values published in ChEMBL document CHEMBL5365420, “Kinetics, Thermodynamics, and Structural Effects of Quinoline-2-Carboxylates, Zinc-Binding Inhibitors of New Delhi Metallo-β-lactamase-1 Re-sensitizing Multidrug-Resistant Bacteria for Carbapenems” (J Med Chem, 2023).

How the values were obtained:
[1] = system: Escherichia coli; test: Antibacterial activity against clinical isolate Escherichia coli ST1012/10 expressing blaNDM-1 co-expressing blaTEM-1/blaCTX-M-15/blaOXA-1 and blaOXA-2 assessed as meropenem MIC at 59.20 uM measured after 20 hrs by broth microdilution assay (reference value: 24 mg/L); assay type: functional; details: dose 59.2 µM
[2] = target: T1, 72 kDa type IV collagenase (Homo sapiens, UniProt P08253); test: Binding affinity to human recombinant MMP-2 CD assessed as inhibition constant using OMNIMMP as substrate incubated for 30 mins by fluorescence based analysis
Target sequence in this assay (P08253 whole entry): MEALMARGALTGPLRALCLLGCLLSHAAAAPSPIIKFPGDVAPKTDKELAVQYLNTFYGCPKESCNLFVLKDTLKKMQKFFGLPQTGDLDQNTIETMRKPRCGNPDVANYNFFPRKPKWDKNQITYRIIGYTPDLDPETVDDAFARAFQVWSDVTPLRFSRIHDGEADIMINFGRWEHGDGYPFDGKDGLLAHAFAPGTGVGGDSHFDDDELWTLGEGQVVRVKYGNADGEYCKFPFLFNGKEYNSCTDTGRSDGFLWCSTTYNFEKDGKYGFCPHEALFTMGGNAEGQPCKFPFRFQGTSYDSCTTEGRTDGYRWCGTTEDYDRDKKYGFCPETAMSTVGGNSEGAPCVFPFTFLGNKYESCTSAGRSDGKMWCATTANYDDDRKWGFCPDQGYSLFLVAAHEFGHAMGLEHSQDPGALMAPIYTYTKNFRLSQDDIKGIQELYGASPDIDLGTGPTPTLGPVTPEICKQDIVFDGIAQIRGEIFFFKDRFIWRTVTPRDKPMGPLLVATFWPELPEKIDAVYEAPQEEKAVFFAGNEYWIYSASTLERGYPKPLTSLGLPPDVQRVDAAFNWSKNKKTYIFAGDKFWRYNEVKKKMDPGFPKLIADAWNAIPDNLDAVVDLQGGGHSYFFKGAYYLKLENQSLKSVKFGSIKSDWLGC

[3] = target: T1, 72 kDa type IV collagenase; test: Inhibition of human recombinant MMP-2 CD at 10 uM using OMNIMMP as substrate incubated for 30 mins by fluorescence based analysis relative to control
Target sequence in this assay (P08253 110-660 limits assumed): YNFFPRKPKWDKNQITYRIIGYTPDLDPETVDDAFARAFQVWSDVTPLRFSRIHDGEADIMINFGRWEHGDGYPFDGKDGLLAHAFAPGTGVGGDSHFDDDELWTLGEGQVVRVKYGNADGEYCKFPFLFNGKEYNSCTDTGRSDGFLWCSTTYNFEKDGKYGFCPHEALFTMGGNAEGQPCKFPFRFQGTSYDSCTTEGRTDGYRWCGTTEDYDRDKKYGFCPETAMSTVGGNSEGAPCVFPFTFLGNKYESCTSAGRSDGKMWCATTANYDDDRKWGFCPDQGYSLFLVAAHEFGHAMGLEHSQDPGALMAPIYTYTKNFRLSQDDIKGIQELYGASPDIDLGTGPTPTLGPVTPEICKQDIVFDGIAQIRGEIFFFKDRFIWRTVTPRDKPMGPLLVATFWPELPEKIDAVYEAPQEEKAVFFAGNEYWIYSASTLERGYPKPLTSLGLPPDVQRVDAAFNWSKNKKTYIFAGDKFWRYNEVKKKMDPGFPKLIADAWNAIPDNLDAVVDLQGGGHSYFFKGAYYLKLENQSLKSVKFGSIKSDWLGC

[4] = system: Klebsiella pneumoniae; test: Antibacterial activity against clinical isolate Klebsiella pneumoniae ST1493/10 expressing blaNDM-1 co-expressing blaCMY-2like/blaTEM-1/blaCTX-M-15/blaSHV-28/blaOXA-1 and blaOXA-9 assessed as meropenem MIC at 29.60 uM measured after 20 hrs by broth microdilution assay (reference value: 12 mg/L); assay type: functional; details: dose 29.6 µM
[5] = system: Klebsiella pneumoniae; test: Antibacterial activity against clinical isolate Klebsiella pneumoniae 62/07 expressing blaVIM-19 co-expressing blaSHV-1/blaCTX-M-14 and blaCMY-4 assessed as meropenem MIC at 59.20 uM measured after 20 hrs by broth microdilution assay (reference value: 24 mg/L); assay type: functional; details: dose 59.2 µM
[6] = system: Escherichia coli; test: Antibacterial activity against clinical isolate Escherichia coli 371/12 expressing blaNDM-7 co-expressing blaCTX-M-15 and blaOXA-1 assessed as meropenem MIC at 59.20 uM measured after 20 hrs by broth microdilution assay (reference value: 24 mg/L); assay type: functional; details: dose 59.2 µM
[7] = system: Klebsiella pneumoniae; test: Antibacterial activity against clinical isolate Klebsiella pneumoniae ST23213/19 expressing blaNDM-1 co-expressing blaOXA-48/blaSHV-11/blaCTX-M-15 and blaOXA-1 assessed as meropenem MIC at 29.60 uM measured after 20 hrs by broth microdilution assay (reference value: 12 mg/L); assay type: functional; details: dose 29.6 µM
[8] = system: Klebsiella pneumoniae; test: Antibacterial activity against clinical isolate Klebsiella pneumoniae 50/11 expressing blaNDM-1 co-expressing blaTEM-1/blaSHV-28/blaTEM-1/blaCTX-M-15 and blaOXA-1 assessed as meropenem MIC at 29.60 uM measured after 20 hrs by broth microdilution assay (reference value: 12 mg/L); assay type: functional; details: dose 29.6 µM
[9] = system: Acinetobacter baumannii; test: Antibacterial activity against clinical isolate Acinetobacter baumannii IC 19/09 expressing blaNDM-1 co-expressing blaOXA-64 assessed as meropenem MIC at 29.60 uM measured after 20 hrs by broth microdilution assay (reference value: 12 mg/L); assay type: functional; details: dose 29.6 µM
[10] = system: Klebsiella pneumoniae; test: Antibacterial activity against clinical isolate Klebsiella pneumoniae 50/20 expressing blaNDM-5 co-expressing blaTEM-1 and blaSHV-1 assessed as meropenem MIC at 29.60 uM measured after 20 hrs by broth microdilution assay (reference value: 12 mg/L); assay type: functional; details: dose 29.6 µM
[11] = Inhibition of IMP-1 (unknown origin) expressed in Escherichia coli BL21-DE3 incubated for 15 mins by absorbance based microplate reader analysis; design: species or system Bacteria
[12] = system: Escherichia coli; test: Antibacterial activity against clinical isolate Escherichia coli K12 J53-ST10 684/18 expressing blaNDM-1 co-expressing blaCMY-2 and blaOXA-10 assessed as meropenem MIC at 29.60 uM measured after 20 hrs by broth microdilution assay (reference value: 12 mg/L); assay type: functional; details: dose 29.6 µM
[13] = system: Escherichia coli; test: Antibacterial activity against clinical isolate Escherichia coli K12 J53-ST10 618/15 expressing blaNDM-1 assessed as meropenem MIC at 29.60 uM measured after 20 hrs by broth microdilution assay (reference value: 12 mg/L); assay type: functional; details: dose 29.6 µM
[14] = system: Escherichia coli; test: Antibacterial activity against clinical isolate Escherichia coli K12 J53-ST10 699/15 expressing blaNDM-1 assessed as meropenem MIC at 29.60 uM measured after 20 hrs by broth microdilution assay (reference value: 12 mg/L); assay type: functional; details: dose 29.6 µM
[15] = system: Klebsiella pneumoniae; test: Antibacterial activity against clinical isolate Klebsiella pneumoniae 62/07 expressing blaVIM-19 co-expressing blaSHV-1/blaCTX-M-14 and blaCMY-4 assessed as meropenem MIC at 29.60 uM measured after 20 hrs by broth microdilution assay (reference value: 12 mg/L); assay type: functional; details: dose 29.6 µM
[16] = Inhibition of VIM-2 (unknown origin) incubated for 15 mins by absorbance based microplate reader analysis; design: species or system Bacteria
[17] = system: Klebsiella pneumoniae; test: Antibacterial activity against clinical isolate Klebsiella pneumoniae ST1493/10 expressing blaNDM-1 co-expressing blaCMY-2like/blaTEM-1/blaCTX-M-15/blaSHV-28/blaOXA-1 and blaOXA-9 assessed as meropenem MIC at 59.20 uM measured after 20 hrs by broth microdilution assay (reference value: 24 mg/L); assay type: functional; details: dose 59.2 µM
[18] = system: Escherichia coli; test: Antibacterial activity against clinical isolate Escherichia coli K12 J53-ST10 696/17 expressing blaNDM-1 co-expressing blaCMY-4 assessed as meropenem MIC at 59.20 uM measured after 20 hrs by broth microdilution assay (reference value: 24 mg/L); assay type: functional; details: dose 59.2 µM
[19] = system: Escherichia coli; test: Antibacterial activity against clinical isolate Escherichia coli K12 J53-ST10 696/17 expressing blaNDM-1 co-expressing blaCMY-4 assessed as meropenem MIC at 29.60 uM measured after 20 hrs by broth microdilution assay (reference value: 12 mg/L); assay type: functional; details: dose 29.6 µM
[20] = system: Escherichia coli; test: Antibacterial activity against clinical isolate Escherichia coli K12 J53-ST10 684/18 expressing blaNDM-1 co-expressing blaCMY-2 and blaOXA-10 assessed as meropenem MIC at 59.20 uM measured after 20 hrs by broth microdilution assay (reference value: 24 mg/L); assay type: functional; details: dose 59.2 µM
[21] = system: Acinetobacter baumannii; test: Antibacterial activity against clinical isolate Acinetobacter baumannii IC 19/09 expressing blaNDM-1 co-expressing blaOXA-64 assessed as meropenem MIC at 59.20 uM measured after 20 hrs by broth microdilution assay (reference value: 24 mg/L); assay type: functional; details: dose 59.2 µM
[22] = target: Carbonic anhydrase 2 (Homo sapiens) (UniProt P00918); test: Inhibition of human CA2 at 10 uM using pNPA as substrate preincubated for 15 mins followed by substrate by absorbance based analysis relative to control
[23] = Inhibition of GIM1 (unknown origin) incubated for 15 mins by absorbance based microplate reader analysis; design: species or system Bacteria
[24] = system: Escherichia coli; test: Antibacterial activity against clinical isolate Escherichia coli ST1012/10 expressing blaNDM-1 co-expressing blaTEM-1/blaCTX-M-15/blaOXA-1 and blaOXA-2 assessed as meropenem MIC at 29.60 uM measured after 20 hrs by broth microdilution assay (reference value: 12 mg/L); assay type: functional; details: dose 29.6 µM
[25] = system: Escherichia coli; test: Antibacterial activity against clinical isolate Escherichia coli 371/12 expressing blaNDM-7 co-expressing blaCTX-M-15 and blaOXA-1 assessed as meropenem MIC at 29.60 uM measured after 20 hrs by broth microdilution assay (reference value: 12 mg/L); assay type: functional; details: dose 29.6 µM
[26] = system: Klebsiella pneumoniae; test: Antibacterial activity against clinical isolate Klebsiella pneumoniae 50/20 expressing blaNDM-5 co-expressing blaTEM-1 and blaSHV-1 assessed as meropenem MIC at 59.20 uM measured after 20 hrs by broth microdilution assay (reference value: 24 mg/L); assay type: functional; details: dose 59.2 µM
[27] = system: Klebsiella pneumoniae; test: Antibacterial activity against clinical isolate Klebsiella pneumoniae 50/11 expressing blaNDM-1 co-expressing blaTEM-1/blaSHV-28/blaTEM-1/blaCTX-M-15 and blaOXA-1 assessed as meropenem MIC at 59.20 uM measured after 20 hrs by broth microdilution assay (reference value: 24 mg/L); assay type: functional; details: dose 59.2 µM
[28] = system: Escherichia coli; test: Antibacterial activity against clinical isolate Escherichia coli K12 J53-ST10 699/15 expressing blaNDM-1 assessed as meropenem MIC at 59.20 uM measured after 20 hrs by broth microdilution assay (reference value: 24 mg/L); assay type: functional; details: dose 59.2 µM
[29] = system: Klebsiella pneumoniae; test: Antibacterial activity against clinical isolate Klebsiella pneumoniae ST23213/19 expressing blaNDM-1 co-expressing blaOXA-48/blaSHV-11/blaCTX-M-15 and blaOXA-1 assessed as meropenem MIC at 59.20 uM measured after 20 hrs by broth microdilution assay (reference value: 24 mg/L); assay type: functional; details: dose 59.2 µM
[30] = target: Histone deacetylase 1 (Homo sapiens) (UniProt Q13547); test: Inhibition of C-terminal 6His/FLAG-tagged human recombinant full-length HDAC1 (1 to 482(end) residues) at 10 uM using Boc-Lys-(Ac)-AMC as substrate incubated for 10 mins followed by substrate addition measured after 1 hr by fluorescence based analysis relative to control; details: time 70.0 min
[31] = system: Escherichia coli; test: Antibacterial activity against clinical isolate Escherichia coli K12 J53-ST10 618/15 expressing blaNDM-1 assessed as meropenem MIC at 59.20 uM measured after 20 hrs by broth microdilution assay (reference value: 24 mg/L); assay type: functional; details: dose 59.2 µM
[32] = target: T1, 72 kDa type IV collagenase; test: Inhibition of human recombinant MMP-2 CD using OMNIMMP as substrate incubated for 30 mins by fluorescence based analysis
Target sequence in this assay (P08253 whole entry): as the sequence (P08253 whole entry) above

Histone deacetylase 1 (Homo sapiens), sequence (Q13547 whole entry): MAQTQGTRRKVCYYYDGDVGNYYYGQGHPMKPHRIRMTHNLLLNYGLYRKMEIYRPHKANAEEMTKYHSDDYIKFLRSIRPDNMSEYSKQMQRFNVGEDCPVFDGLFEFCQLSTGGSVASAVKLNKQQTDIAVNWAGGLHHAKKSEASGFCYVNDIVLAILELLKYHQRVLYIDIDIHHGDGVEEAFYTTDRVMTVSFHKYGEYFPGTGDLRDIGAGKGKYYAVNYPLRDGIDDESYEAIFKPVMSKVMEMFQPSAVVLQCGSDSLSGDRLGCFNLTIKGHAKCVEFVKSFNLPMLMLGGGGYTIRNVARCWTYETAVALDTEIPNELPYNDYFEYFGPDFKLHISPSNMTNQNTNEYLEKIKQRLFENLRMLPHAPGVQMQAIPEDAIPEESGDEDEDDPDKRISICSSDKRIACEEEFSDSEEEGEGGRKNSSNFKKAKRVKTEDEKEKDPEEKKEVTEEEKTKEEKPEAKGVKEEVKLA

With `O=C(O)c1ccc2c(-c3ccccc3)ccc(NS(=O)(=O)c3ccccn3)c2n1` as the compound, how does the MIC [1] read?
The MIC was at most 0.125 µg/mL.

And the Ki [2]?
The Ki was 7750 nM.

And the inhibition [3]?
Its inhibition is over 90%.

And the MIC [4]?
The MIC was 4 µg/mL.

And the MIC [5]?
Its MIC is 0.25 µg/mL.

What about the MIC [6] of the same compound?
The MIC was at most 0.125 µg/mL.

And the MIC [7]?
Its MIC is 16 µg/mL.

And the MIC [8]?
Its MIC is 0.5 µg/mL.

What about the MIC [9] of the same compound?
The MIC was 16 µg/mL.

What about the MIC [10] of the same compound?
The MIC was 2 µg/mL.

What about the IC50 [11] of the same compound?
The IC50 was 690 nM.

What about the MIC [12] of the same compound?
The MIC was 0.5 µg/mL.

What about the MIC [13] of the same compound?
The MIC was at most 0.125 µg/mL.

What about the MIC [14] of the same compound?
The MIC was 1 µg/mL.

What about the MIC [15] of the same compound?
Its MIC is 8 µg/mL.

And the IC50 [16]?
The IC50 was 400 nM.

And the MIC [17]?
The MIC was 1 µg/mL.

What about the MIC [18] of the same compound?
Its MIC is at most 0.125 µg/mL.

What about the MIC [19] of the same compound?
Its MIC is 0.25 µg/mL.

And the MIC [20]?
The MIC was at most 0.125 µg/mL.

What about the MIC [21] of the same compound?
Its MIC is 1 µg/mL.

And the inhibition [22]?
The inhibition was under 5%.

And the IC50 [23]?
The IC50 was 650 nM.

What about the MIC [24] of the same compound?
The MIC was 0.5 µg/mL.

What about the MIC [25] of the same compound?
Its MIC is 32 µg/mL.

And the MIC [26]?
Its MIC is at most 0.125 µg/mL.

What about the MIC [27] of the same compound?
The MIC was 0.25 µg/mL.

And the MIC [28]?
The MIC was at most 0.125 µg/mL.

And the MIC [29]?
Its MIC is 16 µg/mL.

And the inhibition [30]?
The inhibition was under 5%.

What about the MIC [31] of the same compound?
The MIC was at most 0.125 µg/mL.

Which IC50 [32] does the source give for `O=C(O)[C@H](Cc1ccccc1)NS(=O)(=O)c1ccc(-c2ccccc2)cc1` here?
The IC50 was 266 nM.
